Assay results taken from ChEMBL document CHEMBL3627688, “Structure-based hybridization, synthesis and biological evaluation of novel tetracyclic heterocyclic azathioxanthone analogues as potential antitumor agents” (Eur J Med Chem, 2015).

Columns and labels:
KM12 = experiment: Growth inhibition of human KM12 cells assessed as cell growth at 10 uM incubated for 48 hrs by sulforhodamine B assay; assay type: functional; details: KM12, 48 h, read-out: Activity
[1] = Growth inhibition of human EKVX cells assessed as cell growth at 10 uM incubated for 48 hrs by sulforhodamine B assay; assay type: functional; details: read-out: Activity
PC-3 [2] = experiment: Antiproliferative activity against human PC3 cells assessed as cell viability incubated for 72 hrs by MTT assay; assay type: functional, cell-based; details: PC-3, 72 h
PC-3 [3] = experiment: Growth inhibition of human PC3 cells assessed as cell growth at 10 uM incubated for 48 hrs by sulforhodamine B assay; assay type: functional; details: PC-3, 48 h, read-out: Activity
786-0 = experiment: Growth inhibition of human 786-0 cells assessed as cell growth at 10 uM incubated for 48 hrs by sulforhodamine B assay; assay type: functional; details: 786-0, 48 h, read-out: Activity
DU-145 = experiment: Antiproliferative activity against human DU145 cells assessed as cell viability incubated for 72 hrs by MTT assay; assay type: functional, cell-based; details: DU-145, 72 h
[4] = Growth inhibition of human NCI60 cells assessed as cell growth at 10 uM incubated for 48 hrs by sulforhodamine B assay; assay type: functional; details: NCI60, 48 h, read-out: Activity
M14 = experiment: Growth inhibition of human M14 cells assessed as cell growth at 10 uM incubated for 48 hrs by sulforhodamine B assay; assay type: functional; details: M14, 48 h, read-out: Activity
SF-268 = experiment: Growth inhibition of human SF268 cells assessed as cell growth at 10 uM incubated for 48 hrs by sulforhodamine B assay; assay type: functional; details: SF-268, 48 h, read-out: Activity
[5] = Growth inhibition of human SF539 cells assessed as cell growth at 10 uM incubated for 48 hrs by sulforhodamine B assay; assay type: functional; details: SF-539, 48 h, read-out: Activity
NCI-H226 = experiment: Growth inhibition of human NCI-H226 cells assessed as cell growth at 10 uM incubated for 48 hrs by sulforhodamine B assay; assay type: functional; details: NCI-H226, 48 h, read-out: Activity
[6] = Growth inhibition of human RXF393 cells assessed as cell growth at 10 uM incubated for 48 hrs by sulforhodamine B assay; assay type: functional; details: RXF 393, 48 h, read-out: Activity
IGROV-1 = experiment: Growth inhibition of human IGROV1 cells assessed as cell growth at 10 uM incubated for 48 hrs by sulforhodamine B assay; assay type: functional; details: IGROV-1, 48 h, read-out: Activity
SK-MEL-5 = experiment: Growth inhibition of human SK-MEL-5 cells assessed as cell growth at 10 uM incubated for 48 hrs by sulforhodamine B assay; assay type: functional; details: SK-MEL-5, 48 h, read-out: Activity
OVCAR-5 = experiment: Growth inhibition of human OVCAR5 cells assessed as cell growth at 10 uM incubated for 48 hrs by sulforhodamine B assay; assay type: functional; details: OVCAR-5, 48 h, read-out: Activity
[7] = Growth inhibition of human SF295 cells assessed as cell growth at 10 uM incubated for 48 hrs by sulforhodamine B assay; assay type: functional; details: SF-295, 48 h, read-out: Activity
[8] = Growth inhibition of human NCI-ADR-RES cells assessed as cell growth at 10 uM incubated for 48 hrs by sulforhodamine B assay; assay type: functional; details: read-out: Activity
ACHN = experiment: Growth inhibition of human ACHN cells assessed as cell growth at 10 uM incubated for 48 hrs by sulforhodamine B assay; assay type: functional; details: read-out: Activity
T47D = experiment: Growth inhibition of human T47D cells assessed as cell growth at 10 uM incubated for 48 hrs by sulforhodamine B assay; assay type: functional; details: read-out: Activity
[9] = Growth inhibition of human BT549 cells assessed as cell growth at 10 uM incubated for 48 hrs by sulforhodamine B assay; assay type: functional; details: BT-549, 48 h, read-out: Activity
K562 = experiment: Growth inhibition of human K562 cells assessed as cell growth at 10 uM incubated for 48 hrs by sulforhodamine B assay; assay type: functional; details: K562, 48 h, read-out: Activity
MDA-MB-231 = experiment: Growth inhibition of human MDA-MB-231/ATCC cells assessed as cell growth at 10 uM incubated for 48 hrs by sulforhodamine B assay; assay type: functional; details: MDA-MB-231, 48 h, read-out: Activity
SW-620 = experiment: Growth inhibition of human SW620 cells assessed as cell growth at 10 uM incubated for 48 hrs by sulforhodamine B assay; assay type: functional; details: SW-620, 48 h, read-out: Activity
OVCAR-8 = experiment: Growth inhibition of human OVCAR8 cells assessed as cell growth at 10 uM incubated for 48 hrs by sulforhodamine B assay; assay type: functional; details: OVCAR-8, 48 h, read-out: Activity
U-251 = experiment: Growth inhibition of human U251 cells assessed as cell growth at 10 uM incubated for 48 hrs by sulforhodamine B assay; assay type: functional; details: U-251, 48 h, read-out: Activity
A498 = experiment: Growth inhibition of human A498 cells assessed as cell growth at 10 uM incubated for 48 hrs by sulforhodamine B assay; assay type: functional; details: A498, 48 h, read-out: Activity
SK-OV-3 = experiment: Growth inhibition of human SKOV3 cells assessed as cell growth at 10 uM incubated for 48 hrs by sulforhodamine B assay; assay type: functional; details: SK-OV-3, 48 h, read-out: Activity

## O=C(O)c1c(Sc2ccc(Cl)cc2)c(O)nc2ccccc12
KM12
  growth at 10 µM: 113%
[1]
  growth at 10 µM: 89.5%
PC-3 [2]
  IC50: > 15 µM
PC-3 [3]
  growth at 10 µM: 93.2%
786-0
  growth at 10 µM: 104%
DU-145
  IC50: > 15 µM
[4]
  growth at 10 µM: 102%
M14
  growth at 10 µM: 107%
SF-268
  growth at 10 µM: 114%
[5]
  growth at 10 µM: 110%
NCI-H226
  growth at 10 µM: 106%
[6]
  growth at 10 µM: 114%
IGROV-1
  growth at 10 µM: 104%
SK-MEL-5
  growth at 10 µM: 98.1%
OVCAR-5
  growth at 10 µM: 112%
[7]
  growth at 10 µM: 99%
[8]
  growth at 10 µM: 97.8%
ACHN
  growth at 10 µM: 113%
T47D
  growth at 10 µM: 99.6%
[9]
  growth at 10 µM: 124%
K562
  growth at 10 µM: 112%
MDA-MB-231
  growth at 10 µM: 95.7%
SW-620
  growth at 10 µM: 96.9%
OVCAR-8
  growth at 10 µM: 115%
U-251
  growth at 10 µM: 99.6%

## O=c1c2ccc(Cl)cc2sc2c(Cl)nc3ccccc3c12
KM12
  growth at 10 µM: 111%
PC-3 [2]
  IC50: > 15 µM
A498
  growth at 10 µM: 106%
PC-3 [3]
  growth at 10 µM: 91.6%
786-0
  growth at 10 µM: 105%
DU-145
  IC50: > 15 µM
[4]
  growth at 10 µM: 98.1%
M14
  growth at 10 µM: 106%
SF-268
  growth at 10 µM: 110%
[5]
  growth at 10 µM: 89%
NCI-H226
  growth at 10 µM: 83.4%
[6]
  growth at 10 µM: 103%
IGROV-1
  growth at 10 µM: 96.1%
SK-MEL-5
  growth at 10 µM: 97.4%
OVCAR-5
  growth at 10 µM: 100%
[7]
  growth at 10 µM: 90.3%
[8]
  growth at 10 µM: 103%
ACHN
  growth at 10 µM: 86.8%
T47D
  growth at 10 µM: 110%
[9]
  growth at 10 µM: 110%
K562
  growth at 10 µM: 101%
MDA-MB-231
  growth at 10 µM: 84.3%
SW-620
  growth at 10 µM: 99.1%
SK-OV-3
  growth at 10 µM: 101%
OVCAR-8
  growth at 10 µM: 102%
U-251
  growth at 10 µM: 102%
